Reference: patent EP2949653A1, “ISOXAZOLE DERIVATIVES AS LEUKOTRIENE BIOSYNTHESIS INHIBITORS” (Banoglu, Erden, priority 2014, dated 2015)

Assays:
5-LO = target: T1, 5-LO (Homo sapiens, UniProt P09917); assay: 5-LO mediated product formation in neutrophil homogenates (reducing conditions); format: biochemical; set-up: endogenous in cells; host or cells: neutrophil homogenates; conditions: with or without GSH (1 mM), 20 µM AA (Figure 6)
T1 sequence (P09917 1-674): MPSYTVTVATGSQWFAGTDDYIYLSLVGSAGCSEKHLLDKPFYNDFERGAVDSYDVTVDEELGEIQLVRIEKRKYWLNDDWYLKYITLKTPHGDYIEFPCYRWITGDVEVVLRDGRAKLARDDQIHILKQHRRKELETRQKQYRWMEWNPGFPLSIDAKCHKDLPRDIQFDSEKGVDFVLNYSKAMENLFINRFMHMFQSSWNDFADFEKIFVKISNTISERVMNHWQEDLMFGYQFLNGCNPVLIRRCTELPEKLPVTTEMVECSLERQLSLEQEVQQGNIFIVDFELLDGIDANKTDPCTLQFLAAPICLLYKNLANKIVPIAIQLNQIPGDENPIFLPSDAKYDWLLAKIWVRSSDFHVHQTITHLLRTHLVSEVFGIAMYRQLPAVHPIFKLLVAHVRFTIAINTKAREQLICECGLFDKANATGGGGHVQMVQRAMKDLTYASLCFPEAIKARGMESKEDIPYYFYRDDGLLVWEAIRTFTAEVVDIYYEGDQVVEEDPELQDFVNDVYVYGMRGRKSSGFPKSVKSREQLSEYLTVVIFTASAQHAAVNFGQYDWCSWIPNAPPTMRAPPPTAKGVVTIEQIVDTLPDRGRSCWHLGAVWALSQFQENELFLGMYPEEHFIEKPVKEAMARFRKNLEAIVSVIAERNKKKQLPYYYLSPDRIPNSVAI
Description: (§1) Cell based and cell-free assays carried out in biological studies, immunofluorescence microscopy analysis and zymosan-induced peritonitis in mice are performed as described hereinabove (Pegola, C. and et al., British J. Pharmacology, 2014, D01:10.1111/bph.12625). In the cell based assays (intact neutrophils or monocytes), 5-LO mediated product formation is started, after pre-incubation with test compounds (or control DMSO) for 15 min. at 37 °C, with addition of Ca-ionophore A23187 (2.5 µM) to the fresh 5 x 10^6 neutrophils or monocytes suspended in 1 ml of PGC buffer (phosphate buffered saline (PBS) solution containing 1 mg ml^-1 glucose and 1mM CaCl2, pH 7.4). After the incubation for 10 min. at 37 °C, the reaction is ended with addition of 1 ml of methanol, and 30 µL 1 N HCl, 200 ng prostaglandin B1 and 500 µL PBS are added to the mixture. […] Resulting 5-LO mediated products are extracted and analysed by the known method of high pressure liquid chromatography (HPLC) (Pergola, C. Proc Natl. Acad. Sci. U.S.A. 2008, 105, 19881). 5-LO mediated product formation (LTB4 and all trans isomers, and 5 (S)-hydro(pero)xy-6-trans-8, 11, 14-cis-eicosatetraenoic acid, 5-H(p)ETE) is expressed as ng per 10^6 cell. Cysteinyl-LTs have not been analyzed because that the amount of C4, D4 and E4 and LTB4 oxidation products are below the detection limit. […]

[1] = target: T2, microsomal prostaglandin E synthase-1 (mPGES-1) (Homo sapiens, UniProt O14684); assay: mPGES-1 inhibition; format: biochemical
T2 sequence (O14684 1-152): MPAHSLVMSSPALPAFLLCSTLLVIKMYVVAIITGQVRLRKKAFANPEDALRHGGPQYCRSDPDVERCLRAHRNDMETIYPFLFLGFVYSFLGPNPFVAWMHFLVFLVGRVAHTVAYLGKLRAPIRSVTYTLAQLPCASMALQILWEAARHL
Description: Compound 9hj inhibited microsomal prostaglandin E synthase-1 (mPGES-1) with IC50 of 5 µM.

PMNL = assay: Cytotoxicity to PMNL; format: cell-based; conditions: within 1 hour at 10 µM
[2] = system: zymosan-induced peritonitis; assay: Zymosan-induced peritonitis in mice; format: in vivo; conditions: i.p., male mice, 30 min before zymosan; LTC4 levels in peritoneal exudate (Figure 9)
Description: as §1

IC50 (5-LO): 1000 nM
IC50 [1]: 5000 nM
Compound: O=C(O)c1noc(-c2ccc(OCc3ccc4ccccc4n3)cc2)c1-c1ccc(Cl)cc1 [Compound 9hj, 4-(4-Chlorophenyl)-5-(4-(quinolin-2-ylmethoxy)phenyl)isoxazole-3-carboxylic acid]
cytotoxicity to PMNL (PMNL): not cytotoxic
ID50 zymosan-induced peritonitis [2]: 7 mg/kg
